# Laboratory results: patent EP4748837A1, “AROMATIC AMIDE DERIVATIVE, AND PREPARATION METHOD THEREFOR AND USE THEREOF” (Zhejiang Hisun Pharmaceutical Co., Ltd., priority 2023, dated 2025)
# pIC50: −log10 of the molar value.
# How the values were obtained:
# [1] = Pharmacokinetic testing in mice after intragastric administration; format: in vivo; conditions: male, mouse, ICR mice, oral administration 10 mg/kg, plasma
# Procedure: ICR mice were taken as test animals, and intragastrically administered with a control compound AMG650 and compounds 47 and 53 of the present invention, and then drug concentrations in plasma at different moments were determined by an LC/MS/MS method, so as to study pharmacokinetic characteristics of the compounds of the present invention in the mice.
# Control compound AMG650, and Compounds 47 and 53.
# ICR mice, male, 20-22 g, purchased from Vital River Laboratory Animal Technology Co., Ltd.
# A proper amount of to-be-tested compound was weighed, proper amounts of DMA, 30% HS-15 and Saline were added in sequence, and the mixture was well mixed by ultrasonic vortex to prepare 1 mg/mL drug preparations respectively, wherein […]: 30% HS-15: Saline=5: 5: 90 (v: v: v).
# ICR mice in each to-be-tested compound injection group (9 mice in each group) were fasted overnight and then intragastrically administered with the compound (PO, an administration dosage of the compound was 10 mg/kg and an administration volume of the compound was 10 mL/kg), and were fed 4 hours after administration.
# 0.25 hours, 0.5 hours, 1 hour, 2 hours, 4 hours, 6 hours, 8 hours and 24 hours before and after administration, about […] of blood was collected through an orbit, and a complete blood sample was placed in an EDTA-K2-containing anticoagulation tube. The collected blood samples were placed on ice, and plasma was centrifugally separated (centrifugation conditions: 1500 g, 10 minutes). The collected plasma was stored at -40°C - -20°C before analysis.
# A content of the to-be-tested compound in the plasma of the mice after intragastric administration was determined by LC-MS/MS.
# HT-29 cells = experiment: Inhibition of HT-29 cell proliferation (CellTiter-Glo cell viability); format: cell-based; conditions: Homo sapiens; HT-29 cells (TP53 R273H mutation), 120 hours culture with compound; read-out: IC50
# Method in brief: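 HT-29 cells (TP53 R273H) in McCOY's 5A with 10% FBS, seeded 1000 cells/well overnight, then exposed to compound at 1000 nM–0.015 nM final for 120 hours at 37°C. Viability by CellTiter-Glo luminescence versus 0.3% DMSO control; IC50 by nonlinear regression of log concentration–inhibition.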
# [2] = test system: OVCAR-3 human ovarian adenocarcinoma tumor mass; experiment: Pharmacodynamic testing in subcutaneous OVCAR-3 xenograft model; format: in vivo, BALB/c nude mice; conditions: 35 days after administration, 8 mg/kg po QD, BALB/c nude mice
# Procedure: Anti-tumor effects and Safeties of the Compounds 47 and 53 of the present invention in a BALB/c nude mouse animal model subjected to subcutaneous xenotransplantation of OVCAR-3 human ovarian adenocarcinoma tumor mass were evaluated.
# BALB/c; nude mice, female, 6-7 weeks old, purchased from Jiangsu Gempharmatech Biotechnology Co., Ltd.
# Mice in a solvent control group were given DMA: CrEL: 5%GS=10: 10: 80 (v: v: v). AMG650: a proper amount of AMG-650 was weigned, proper amounts of DMA, CrEL and 5% GS were added in sequence, and the mixture was well mixed by ultrasonic vortex to prepare 0.8 mg/mL drug preparations respectively, wherein DMA: CrEL : 5% GS=10: 10: 80 (v: v: v).
# Compound 47: a proper amount of Compound 47 was added with proper amounts of DMA, CrEL and 5% GS in sequence, and evenly mixed by ultrasonic vortex to prepare 0.8 mg/mL drug preparations respectively, wherein DMA, CrEL and 5% GS=10: 10: 80 (v: v: v).
# Compound 53: a proper amount of Compound 53 was weighed, proper amounts of DMA, CrEL and 5% GS were added in sequence, and the mixture was well mixed by ultrasonic vortex to prepare 0.8 mg/mL drug preparations respectively, wherein DMA: CrEL : 5% GS=10: 10: 80 (v: v: v).
# An appropriate OVCAR-3 tumor-bearing animal was selected, and a 1 mm×1 mm×1 mm OVCAR-3 tumor mass was acquired aseptically and placed into normal saline for later use, which was used for subcutaneous tumor inoculation in a right side of back of the BALB/c nude mice.
# About 1 mm×1 mm×1 mm OVCAR-3 tumor mass was subcutaneously inoculated in the right side of back of the female BALB/c nude mice. When an average tumor volume reached about 100-250 mm^3, the mice were randomly grouped based on tumor size, with 6 mice in each group.
# Animals in each group were given the test compound once per day according to an animal weight at a fixed time every day by oral administration (po), the animals started to be administered with the test compound for the first time on the day of grouping for 35 consecutive days, and the animal weight was recorded every day.
# The 1st group (G1) was a solvent control group; and
# The 2nd-4th groups […] were orally administered with AMG-650, Compound 47 and Compound 53 at an administration dosage of 8 mg/kg once per day (QD).
# OVCAR-3 cells = experiment: Inhibition of OVCAR-3 cell proliferation (CellTiter-Glo cell viability); format: cell-based; conditions: Homo sapiens; OVCAR-3 cells (TP53 R248Q mutation), 72 hours culture with compound; read-out: IC50
# Method in brief: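 OVCAR-3 cells (TP53 R248Q) in RPMI 1640 with 10% FBS were seeded at 1000 cells/well, grown overnight, then exposed to compound (final 1000 nM–0.015 nM) for 72 h at 37°C, 5% CO2. Viability was read by CellTiter-Glo luminescence. IC50 came from nonlinear regression of inhibition relative to 0.3% DMSO control.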
# recombinant human KIF18A = molecular target: T1, recombinant human KIF18A (Homo sapiens, UniProt Q8NI77); experiment: Inhibition of KIF18A enzyme activity (ADP-Glo assay); format: biochemical; conditions: recombinant human KIF18A 100 nM, ATP 60 µM, tubulin, paclitaxel; read-out: IC50
# T1 construct: purchased GenScript
# Procedure: Inhibition degrees of the compounds of the present invention on recombinant human KIF18A enzyme activity in vitro were determined by the following method. An ADP-Glo™ Kinase Assay kit (article number V9102) from Promega Company was used in this method. Detailed experimental operation referred to the instruction of the kit.
# An experimental process was briefly described as follows: a test compound was dissolved in DMSO first to prepare a stock solution, then the stock solution was gradiently diluted with a reaction buffer A ([…], 0.01% Pluronic F-68), and a final concentration of the test compound in the reaction system was in a range of 10000 nM-0.15 nM; and a KIF18A protein and ATP working solution was prepared by using a reaction buffer B (15 mM Tris, pH 7.5, 10 mM MgCl2, 0.01% Pluronic F-68, 37.5 µg/ml tubulin, 1.25 µM paclitaxel). The reaction was carried out in a 384-well microplate. The test compound and the recombinant human KIF18A protein (final concentration of 100 nM, entrusted to GenScript for expression) were added into the wells and incubated at room temperature for 20 minutes, and subsequently, an ATP solution (component V915A from the ADP-Glo™ Kinase Assay kit, final concentration of 60 µM) was added to the reaction solution and the system was incubated at room temperature for 20 minutes. Subsequently, 5 µL of ADP-Glo Reagent was added to the reaction systemand the system was incubated at room temperature for 50 minutes. Then, 10 µL of Kinase Detection Reagent was added to the reaction system and the system was incubated at room temperature for 30 minutes. After the incubation was ended, a chemiluminiscence intensity value of each well was determined by a microplate reader in a Luminescence mode.
# T1 sequence (Q8NI77 whole entry): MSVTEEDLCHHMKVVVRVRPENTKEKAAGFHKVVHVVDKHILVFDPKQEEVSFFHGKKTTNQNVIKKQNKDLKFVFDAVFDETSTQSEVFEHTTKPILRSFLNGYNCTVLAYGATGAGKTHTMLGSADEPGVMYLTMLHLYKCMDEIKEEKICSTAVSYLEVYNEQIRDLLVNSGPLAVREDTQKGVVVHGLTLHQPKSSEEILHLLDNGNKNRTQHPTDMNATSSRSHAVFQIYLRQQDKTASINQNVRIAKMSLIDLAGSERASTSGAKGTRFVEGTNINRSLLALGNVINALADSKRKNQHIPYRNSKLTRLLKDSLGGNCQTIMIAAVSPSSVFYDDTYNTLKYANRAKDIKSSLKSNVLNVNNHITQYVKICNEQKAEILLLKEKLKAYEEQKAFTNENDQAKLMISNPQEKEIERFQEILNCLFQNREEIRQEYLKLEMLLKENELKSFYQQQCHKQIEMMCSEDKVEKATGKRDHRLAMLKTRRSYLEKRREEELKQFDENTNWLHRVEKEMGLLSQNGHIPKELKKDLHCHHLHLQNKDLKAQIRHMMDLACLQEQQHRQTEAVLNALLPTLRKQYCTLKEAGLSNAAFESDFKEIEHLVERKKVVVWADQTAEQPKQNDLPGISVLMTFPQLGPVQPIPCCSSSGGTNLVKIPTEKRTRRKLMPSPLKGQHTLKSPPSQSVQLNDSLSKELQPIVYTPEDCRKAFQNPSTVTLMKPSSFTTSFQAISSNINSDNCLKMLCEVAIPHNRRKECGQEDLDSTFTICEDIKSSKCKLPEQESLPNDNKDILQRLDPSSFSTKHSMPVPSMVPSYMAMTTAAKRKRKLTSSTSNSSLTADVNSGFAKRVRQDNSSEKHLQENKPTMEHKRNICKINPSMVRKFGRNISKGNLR
# T1 sequence (P68363 whole entry partner): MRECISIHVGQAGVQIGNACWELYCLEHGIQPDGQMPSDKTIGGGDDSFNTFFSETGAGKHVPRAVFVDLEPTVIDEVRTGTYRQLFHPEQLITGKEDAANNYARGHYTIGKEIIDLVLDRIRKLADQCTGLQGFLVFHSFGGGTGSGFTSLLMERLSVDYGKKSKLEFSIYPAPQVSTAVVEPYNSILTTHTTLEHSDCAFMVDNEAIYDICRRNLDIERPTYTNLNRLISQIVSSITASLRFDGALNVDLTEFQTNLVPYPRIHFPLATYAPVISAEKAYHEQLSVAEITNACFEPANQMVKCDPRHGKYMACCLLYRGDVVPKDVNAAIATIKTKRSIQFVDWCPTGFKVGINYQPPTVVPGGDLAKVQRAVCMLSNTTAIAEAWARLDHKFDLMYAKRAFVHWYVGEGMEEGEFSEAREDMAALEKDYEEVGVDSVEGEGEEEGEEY
# T1 sequence (Q9BVA1 whole entry partner): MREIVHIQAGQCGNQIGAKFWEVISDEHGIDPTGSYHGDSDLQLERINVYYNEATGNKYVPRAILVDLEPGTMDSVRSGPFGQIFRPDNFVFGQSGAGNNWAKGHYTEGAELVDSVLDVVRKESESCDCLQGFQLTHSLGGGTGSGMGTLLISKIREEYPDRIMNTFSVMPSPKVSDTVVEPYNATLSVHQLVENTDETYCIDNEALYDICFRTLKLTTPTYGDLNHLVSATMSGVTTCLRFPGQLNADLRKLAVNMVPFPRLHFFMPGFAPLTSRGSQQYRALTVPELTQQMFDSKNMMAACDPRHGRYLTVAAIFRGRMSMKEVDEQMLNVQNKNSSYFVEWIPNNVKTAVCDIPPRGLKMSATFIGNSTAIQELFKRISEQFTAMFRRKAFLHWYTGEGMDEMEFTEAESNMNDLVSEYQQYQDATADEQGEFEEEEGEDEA
Structure (SMILES),AUC(0-inf) ([1]; read-out: Area under the curve AUC0-∞) [ng·h/mL],half-life ([1]; read-out: Half-life period T1/2 (converted)) [h],Cmax ([1]; read-out: Plasma concentration Cmax) [ng/mL],pIC50 (HT-29 cells),TGI% [2] [%],"Tumor volume (x±S) ([2]; mean value ± standard error, in mm³ (unit assumed))",pIC50 (OVCAR-3 cells),pIC50 (recombinant human KIF18A)
"Cc1cc(NC(=O)c2ccc(NS(=O)(=O)CCO)cc2N2CCC3(CC2)CC3)nc(N2CCC(F)(F)CC2)n1 [AMG 650, reference compound]",52500,9.64,3050,7.21,68.1,313±76,7.19,
"CCS(=O)(=O)Nc1ccc(C(=O)Nc2ccc(-c3nnco3)c(N3CC(F)(F)C3)c2)c(N2CCC3(CC2)CC3)c1 [Example 49, N-(3-(3,3-difluoroazetidin-1-y 1)-4-(1,3,4-oxadiazol-2-yl)phenyl)-4-(ethylsulfonamido)-2-(6-azaspiro[2.5]octan-6-yl)benzamide]",,,,8.02,,,7.90,7.15
"[2H]C([2H])([2H])Oc1ccc(NC(=O)c2ccc(NS(=O)(=O)CCO)cc2N2CCC3(CC2)CC3)cc1N1CCC(F)(F)CC1 [Example 58, N-(3-(4,4-difluoropiperidin-1-yl)-4-(methoxy-d3)phenyl)-4-( (2-hydroxyethyl)sulfonamido) -2-(6-azaspiro[2.5]octan-6-yl) benzamide]",,,,8.82,,,8.66,7.04
